The Ki is the equilibrium dissociation constant of an inhibitor or competing ligand from its target. Low readings indicate higher affinity, high ones lower affinity.

Sequence of Histamine H4 receptor (Q9H3N8 whole entry): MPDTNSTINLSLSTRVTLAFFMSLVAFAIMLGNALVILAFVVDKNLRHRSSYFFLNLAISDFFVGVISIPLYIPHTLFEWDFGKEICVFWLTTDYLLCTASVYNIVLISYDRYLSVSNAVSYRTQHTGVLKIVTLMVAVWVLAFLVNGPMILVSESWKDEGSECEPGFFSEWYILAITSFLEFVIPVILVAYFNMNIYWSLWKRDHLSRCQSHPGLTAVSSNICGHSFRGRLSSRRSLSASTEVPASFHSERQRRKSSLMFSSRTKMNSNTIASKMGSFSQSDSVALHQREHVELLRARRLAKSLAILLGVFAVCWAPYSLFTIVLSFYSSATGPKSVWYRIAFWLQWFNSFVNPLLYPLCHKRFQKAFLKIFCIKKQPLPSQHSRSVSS

This assay concerns the target Histamine H4 receptor (Homo sapiens, UniProt Q9H3N8). Kind of assay: Inhibition of histamine H4 receptor (unknown origin).
Regarding `CN[C@H]1CCN(c2nc(N)nc3c2CCC3)C1`, the Ki is 158 nM.

In turn, `CN[C@H]1CCN(c2nc(N)nc(C)c2C)C1` showed a Ki of 355 nM.

Molecule `CN[C@H]1CCN(c2nc(N)nc3c2oc2ccc(C(C)(F)F)cc23)C1` had a Ki of 1 nM.

In the case of `CN[C@H]1CCN(c2nc(N)nc3c2oc2ccccc23)C1`, affinity was put at a Ki of 3.39 nM.

For the origin of these results see ChEMBL document CHEMBL3817740, “Recent developments in SAR visualization” (Medchemcomm, 2016).
